#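 A five-concentration, 48-hour dose response in 96-well plates underlies each endpoint, interpolated linearly between surrounding concentrations. GI50 marks 50% less growth. TGI: concentration producing complete growth inhibition.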
# Experiments:
# Test in all cases: NCI-60 cell line screen, 48 h
# HL-60(TB) leukemia = test system: HL-60(TB) leukemia
# HT29 colon = test system: HT29 colon
# MCF7 breast = test system: MCF7 breast
# MDA-MB-231 breast = test system: MDA-MB-231 breast
# UO-31 renal = test system: UO-31 renal
# OVCAR-8 ovarian = test system: OVCAR-8 ovarian
# OVCAR-3 ovarian = test system: OVCAR-3 ovarian
# SNB-75 CNS = test system: SNB-75 CNS
# 786-0 renal = test system: 786-0 renal
# OVCAR-5 ovarian = test system: OVCAR-5 ovarian
# IGROV1 ovarian = test system: IGROV1 ovarian
# A549 NSCLC = test system: A549 NSCLC
# PC-3 prostate = test system: PC-3 prostate
# HOP-62 NSCLC = test system: HOP-62 NSCLC
# HCT-15 colon = test system: HCT-15 colon
# SK-MEL-5 melanoma = test system: SK-MEL-5 melanoma
# ACHN renal = test system: ACHN renal
# OVCAR-4 ovarian = test system: OVCAR-4 ovarian
# CAKI-1 renal = test system: CAKI-1 renal
# NCI-H460 lung = test system: NCI-H460 lung
# UACC-257 melanoma = test system: UACC-257 melanoma
# K-562 leukemia = test system: K-562 leukemia
# TK-10 renal = test system: TK-10 renal
# SN12C renal = test system: SN12C renal
# CCRF-CEM leukemia = test system: CCRF-CEM leukemia
# RPMI-8226 leukemia = test system: RPMI-8226 leukemia
# HS 578T breast = test system: HS 578T breast
# NCI-H226 lung = test system: NCI-H226 lung
# SK-MEL-2 melanoma = test system: SK-MEL-2 melanoma
# EKVX NSCLC = test system: EKVX NSCLC
# COLO 205 colon = test system: COLO 205 colon
# LOX IMVI melanoma = test system: LOX IMVI melanoma
# NCI/ADR-RES ovarian = test system: NCI/ADR-RES ovarian
# MALME-3M melanoma = test system: MALME-3M melanoma
# MOLT-4 leukemia = test system: MOLT-4 leukemia
# NCI-H23 lung = test system: NCI-H23 lung
# BT-549 breast = test system: BT-549 breast
# NCI-H522 lung = test system: NCI-H522 lung
# DU-145 prostate = test system: DU-145 prostate
# MDA-MB-435 = test system: MDA-MB-435
# SK-MEL-28 melanoma = test system: SK-MEL-28 melanoma
# RXF 393 renal = test system: RXF 393 renal
# HOP-92 NSCLC = test system: HOP-92 NSCLC
# M14 melanoma = test system: M14 melanoma
# HCC-2998 colon = test system: HCC-2998 colon
# UACC-62 melanoma = test system: UACC-62 melanoma
# A498 renal = test system: A498 renal
# HCT-116 colon = test system: HCT-116 colon
# SNB-19 CNS = test system: SNB-19 CNS
# SW-620 colon = test system: SW-620 colon
# U251 CNS = test system: U251 CNS
# SF-295 CNS = test system: SF-295 CNS
# SK-OV-3 ovarian = test system: SK-OV-3 ovarian
# SR leukemia = test system: SR leukemia
# SF-539 CNS = test system: SF-539 CNS
# SF-268 CNS = test system: SF-268 CNS
structure (smiles),measurement,setting,value
C=C1C(=O)O[C@@H]2/C=C(/C)C3=CC(=O)[C@@](C)(C[C@H](OC(=O)/C(C)=C\C)[C@@H]12)O3,GI50,HL-60(TB) leukemia,0.911 µM
same,TGI,HL-60(TB) leukemia,2.4 µM
same,GI50,HT29 colon,1.01 µM
same,TGI,HT29 colon,3.71 µM
same,GI50,MCF7 breast,1.12 µM
same,TGI,MCF7 breast,5.55 µM
same,GI50,MDA-MB-231 breast,1.7 µM
same,TGI,MDA-MB-231 breast,6.99 µM
same,GI50,UO-31 renal,0.896 µM
same,TGI,UO-31 renal,4 µM
same,GI50,OVCAR-8 ovarian,1 µM
same,TGI,OVCAR-8 ovarian,5.89 µM
same,TGI,OVCAR-3 ovarian,2.84 µM
same,GI50,SNB-75 CNS,2.37 µM
same,TGI,SNB-75 CNS,27.1 µM
same,GI50,786-0 renal,1.13 µM
same,TGI,786-0 renal,4.13 µM
same,GI50,OVCAR-5 ovarian,1.67 µM
same,TGI,OVCAR-5 ovarian,7.81 µM
same,GI50,IGROV1 ovarian,3.94 µM
same,TGI,IGROV1 ovarian,9.17 µM
same,GI50,A549 NSCLC,6 µM
same,TGI,A549 NSCLC,19.8 µM
same,GI50,PC-3 prostate,4.1 µM
same,TGI,PC-3 prostate,12.1 µM
same,GI50,HOP-62 NSCLC,6.77 µM
same,TGI,HOP-62 NSCLC,19.2 µM
same,GI50,HCT-15 colon,0.661 µM
same,TGI,HCT-15 colon,1.77 µM
same,GI50,SK-MEL-5 melanoma,2.41 µM
same,TGI,SK-MEL-5 melanoma,9.16 µM
same,GI50,ACHN renal,0.658 µM
same,TGI,ACHN renal,1.43 µM
same,GI50,OVCAR-4 ovarian,1.8 µM
same,TGI,OVCAR-4 ovarian,6.23 µM
same,GI50,CAKI-1 renal,1.1 µM
same,TGI,CAKI-1 renal,3.8 µM
same,GI50,NCI-H460 lung,7.04 µM
same,TGI,NCI-H460 lung,> 32.5 µM
same,GI50,UACC-257 melanoma,0.685 µM
same,TGI,UACC-257 melanoma,4.44 µM
same,GI50,K-562 leukemia,0.955 µM
same,TGI,K-562 leukemia,4.79 µM
same,TGI,TK-10 renal,1.99 µM
same,TGI,SN12C renal,12.5 µM
same,GI50,CCRF-CEM leukemia,0.778 µM
same,TGI,CCRF-CEM leukemia,2.92 µM
same,GI50,RPMI-8226 leukemia,0.867 µM
same,TGI,RPMI-8226 leukemia,2.37 µM
same,GI50,HS 578T breast,8.01 µM
same,TGI,HS 578T breast,> 32.5 µM
same,GI50,NCI-H226 lung,1.16 µM
same,TGI,NCI-H226 lung,4.33 µM
same,GI50,SK-MEL-2 melanoma,1.3 µM
same,TGI,SK-MEL-2 melanoma,7.15 µM
same,TGI,EKVX NSCLC,8.36 µM
same,GI50,COLO 205 colon,0.676 µM
same,TGI,COLO 205 colon,1.57 µM
same,GI50,LOX IMVI melanoma,0.997 µM
same,TGI,LOX IMVI melanoma,4.12 µM
same,GI50,NCI/ADR-RES ovarian,1.06 µM
same,TGI,NCI/ADR-RES ovarian,> 32.5 µM
same,TGI,MALME-3M melanoma,5.33 µM
same,GI50,MOLT-4 leukemia,0.857 µM
same,TGI,MOLT-4 leukemia,2.88 µM
same,GI50,NCI-H23 lung,1.52 µM
same,TGI,NCI-H23 lung,6.54 µM
same,TGI,BT-549 breast,5.34 µM
same,GI50,NCI-H522 lung,0.545 µM
same,TGI,NCI-H522 lung,1.21 µM
same,GI50,DU-145 prostate,1.5 µM
same,TGI,DU-145 prostate,5.58 µM
same,GI50,MDA-MB-435,1.5 µM
same,TGI,MDA-MB-435,10.2 µM
same,GI50,SK-MEL-28 melanoma,1.09 µM
same,TGI,SK-MEL-28 melanoma,4.6 µM
same,GI50,RXF 393 renal,0.648 µM
same,TGI,RXF 393 renal,1.58 µM
same,GI50,HOP-92 NSCLC,1.17 µM
same,TGI,HOP-92 NSCLC,5.15 µM
same,GI50,M14 melanoma,1.3 µM
same,TGI,M14 melanoma,7.04 µM
same,GI50,HCC-2998 colon,4.64 µM
same,TGI,HCC-2998 colon,9.07 µM
same,GI50,UACC-62 melanoma,0.748 µM
same,TGI,UACC-62 melanoma,2.4 µM
same,TGI,A498 renal,13.3 µM
same,GI50,HCT-116 colon,0.631 µM
same,TGI,HCT-116 colon,1.49 µM
same,TGI,SNB-19 CNS,> 32.5 µM
same,GI50,SW-620 colon,0.946 µM
same,TGI,SW-620 colon,2.61 µM
same,GI50,U251 CNS,3.37 µM
same,TGI,U251 CNS,8.69 µM
same,GI50,SF-295 CNS,5.52 µM
same,TGI,SF-295 CNS,13.4 µM
same,GI50,SK-OV-3 ovarian,10.5 µM
same,TGI,SK-OV-3 ovarian,> 32.5 µM
same,GI50,SR leukemia,0.594 µM
same,TGI,SR leukemia,3.74 µM
same,GI50,SF-539 CNS,1.44 µM
same,TGI,SF-539 CNS,6.36 µM
same,GI50,SF-268 CNS,5 µM
same,TGI,SF-268 CNS,15.4 µM

# Source: PubChem BioAssay (NCI)
